In US12570988B2, “Aptamers that bind thiamine analogs and derivatives” (MeiraGTx Gene Regulation Limited, priority 2020, dated 2026):

Legend:
[1] = tested on: riboswitch 15D10; assay: Luciferase reporter with 15D10 riboswitch (Luci-15D10) in AML12 cells; type: cell-based, mouse; details: for relative potency in inducing luciferase expression: AML 12 cells, compared with fursultiamine or within groups; for fold induction at 50 µM: Mus musculus, AML12, 24 h, read-out: Fold increase in riboswitch 15D10-regulated luciferase expression, AML; for fold induction at 50 µM / Fold increase in riboswitch 15D10-regulated luciferase expression, AML: AML12 cells, Table 2, 50 μM
[2] = tested on: riboswitch 15D10; assay: Luciferase reporter with 15D10 riboswitch (Luci-15D10) in HEK 293 cells; type: cell-based, human; details: HEK 293 cells; for effect on luciferase expression from Luci-15D10: FIG. 9A, 9C; for fold induction at 50 µM: Homo sapiens, HEK293, 24 h, read-out: Fold increase in riboswitch 15D10-regulated luciferase expression, HEK; for fold induction at 50 µM / Fold increase in riboswitch 15D10-regulated luciferase expression, HEK: Table 2, 50 μM
Procedure: Transfection: 3.5×10^4 human embryonic kidney (HEK) 293 cells were plated in a 96-well flat bottom plate the day before transfection. Plasmid DNA (500 ng) was added to a tube or a 96-well U-bottom plate. […] Then, 50 μL of this diluted transfection reagent was added to the DNA, mixed, and incubated at RT for 20 min. Finally, 7 μL of this solution was added to a well of cells in the 96-well plate. Four hours after transfection, medium containing transfection solution was replaced by medium containing either TPP, fursultiamine, prosultiamine, bisbentiamine, beclotiamine hydrochloride, or sulbutiamine as aptamer inducers.
Firefly luciferase assay of cultured cells: Twenty-four hours after media change, plates were removed from the incubator, and equilibrated to RT for several minutes on a lab bench, then aspirated. Glo-lysis buffer (Promega, 100 μL, RT) was added, and the plates allowed to remain at RT for at least 5 minutes. Then, the well contents were mixed by 50 μL trituration, and 20 μL of each sample was mixed with 20 μL of bright-glo reagent (Promega) that had been diluted to 10% in glo-lysis buffer. 96 wells were spaced on an opaque white 384-well plate. Following a 5 min incubation at RT, luminescence was measured using a Tecan machine with 500 ms read time. The luciferase activity was expressed as mean arbitrary light units (ALU)±S.D., and fold induction was calculated as the quotient of the luciferase activity obtained from cells with TPP or analog treatment divided by the luciferase activity obtained from cells without TPP or analog treatment.

| Structure (SMILES) | effect on luciferase expression from Luci-15D10 [2] | fold induction at 50 µM [1] | fold induction at 50 µM [2] | other results |
| --- | --- | --- | --- | --- |
| C/C(=C(\CCO)SCOC(=O)C(C)C)N(C=O)Cc1cnc(C)nc1N [Compound M16, (Z)-((2-(N-((4-Amino-2-methylpyrimidin-5-yl)methyl)formamido)-5-hydroxypent-2-en-3-yl)thio)methyl isobutyrate] | increased | – | – | relative potency in inducing luciferase expression [1]: more potent than fursultiamine |
| C/C(=C(\CCO)SC(C)OC(=O)C(C)(C)C)N(C=O)Cc1cnc(C)nc1N (centres unmarked) [Compound M18, (Z)-1-((2-(N-((4-Amino-2-methylpyrimidin-5-yl)methyl)formamido)-5-hydroxypent-2-en-3-yl)thio)ethyl pivalate] | increased | – | – | – |
| C/C(=C(\CCO)SC(=O)c1ccccc1)N(C=O)Cc1cnc(C)nc1N [Compound M26, (Z)—S-(2-(N-((4-Amino-2-methylpyrimidin-5-yl)methyl)formamido)-5-hydroxypent-2-en-3-yl) benzothioate] | increased luciferase expression | – | – | – |
| C/C(=C(\CCO)SC(=O)C(C)C)N(C=O)Cc1cnc(C)nc1N [Compound M27, (Z)—S-(2-(N-((4-Amino-2-methylpyrimidin-5-yl)methyl)formamido)-5-hydroxypent-2-en-3-yl) 2-methylpropanethioate] | increased luciferase expression | – | – | – |
| C/C(=C(\CCO)SC(=O)C(C)(C)C)N(C=O)Cc1cnc(C)nc1N [Compound M28, (Z)—S-(2-(N-((4-Amino-2-methylpyrimidin-5-yl)methyl)formamido)-5-hydroxypent-2-en-3-yl) 2,2-dimethylpropanethioate] | increased luciferase expression | – | – | – |
| COc1ccc(C(=O)S/C(CCO)=C(/C)N(C=O)Cc2cnc(C)nc2N)cc1 [Compound M29, (Z)—S-(2-(N-((4-Amino-2-methylpyrimidin-5-yl)methyl)formamido)-5-hydroxypent-2-en-3-yl) 4-methoxybenzothioate] | increased luciferase expression | – | – | – |
| C/C(=C(\CCO)SC(=O)c1c(Cl)cccc1Cl)N(C=O)Cc1cnc(C)nc1N [Compound M30, (Z)—S-(2-(N-((4-Amino-2-methylpyrimidin-5-yl)methyl)formamido)-5-hydroxypent-2-en-3-yl) 2,6-dichlorobenzothioate] | no effect on luciferase expression | – | – | – |
| C/C(=C(\CCOP(=O)(O)O)SC(=O)C(C)(C)C)N(C=O)Cc1cnc(C)nc1N [Compound M31, (Z)—S-(2-(N-((4-Amino-2-methylpyrimidin-5-yl)methyl)formamido)-5-(phosphonooxy)pent-2-en-3-yl) 2,2-dimethylpropanethioate] | no effect on luciferase expression | – | – | – |
| C/C(=C(\CCOP(=O)(O)O)SC(=O)c1c(Cl)cccc1Cl)N(C=O)Cc1cnc(C)nc1N [Compound M33, (Z)—S-(2-(N-((4-Amino-2-methylpyrimidin-5-yl)methyl)formamido)-5-(phosphonooxy)pent-2-en-3-yl) 2,6-dichlorobenzothioate] | no effect on luciferase expression | – | – | – |
| C/C(=C(\CCO)SC(=O)c1cccc2ccccc12)N(C=O)Cc1cnc(C)nc1N [Compound M34, (Z)—S-(2-(N-((4-Amino-2-methylpyrimidin-5-yl)methyl)formamido)-5-hydroxypent-2-en-3-yl) naphthalene-1-carbothioate] | increased luciferase expression | 291 | 164 | relative potency in inducing luciferase expression [1]: most potent inducer; relative potency in inducing luciferase expression ([2]; compared with fursultiamine or within Formula V/VI groups): most potent compound |
| C/C(=C(\CCO)SC(=O)c1ccc(C)c2ccccc12)N(C=O)Cc1cnc(C)nc1N [Compound M37, (Z)—S-(2-(N-((4-amino-2-methylpyrimidin-5-yl)methyl)formamido)-5-hydroxypent-2-en-3-yl) 4-methylnaphthalene-1-carbothioate] | – | 134 | 76.2 | – |
| CCOc1ccc2ccccc2c1C(=O)S/C(CCO)=C(/C)N(C=O)Cc1cnc(C)nc1N [Compound M38, (Z)—S-(2-(N-((4-amino-2-methylpyrimidin-5-yl)methyl)formamido)-5-hydroxypent-2-en-3-yl) 2-ethoxynaphthalene-1-carbothioate] | – | 1 | 1.2 | – |
| C/C(=C(\CCO)SC(=O)c1ccc(Br)c2ccccc12)N(C=O)Cc1cnc(C)nc1N [Compound M39, (Z)—S-(2-(N-((4-amino-2-methylpyrimidin-5-yl)methyl)formamido)-5-hydroxypent-2-en-3-yl) 4-bromonaphthalene-1-carbothioate] | – | 127 | 103 | – |
| C/C(=C(\CCO)SC(=O)c1cc2ccccc2c2ccccc12)N(C=O)Cc1cnc(C)nc1N [Compound M40, (Z)—S-(2-(N-((4-amino-2-methylpyrimidin-5-yl)methyl)formamido)-5-hydroxypent-2-en-3-yl) phenanthrene-9-carbothioate] | – | – | – | Fold increase in riboswitch 15D10-regulated luciferase expression, AML [1]: 206.0 fold; Fold increase in riboswitch 15D10-regulated luciferase expression, HEK [2]: 83.1 fold |
| C/C(=C(\CCO)SC(=O)c1cc2ccccc2c2ccccc12)N(C=O)Cc1cnc(C)nc1N [Compound M43, (Z)—S-(2-(N-((4-amino-2-methylpyrimidin-5-yl)methyl)formamido)-5-hydroxypent-2-en-3-yl) phenanthrene-9-carbothioate] | – | – | – | Fold increase in riboswitch 15D10-regulated luciferase expression, AML [1]: 95.3 fold; Fold increase in riboswitch 15D10-regulated luciferase expression, HEK [2]: 10.2 fold |
| C/C(=C(\CCO)SC(=O)c1ccc(F)c2ccccc12)N(C=O)Cc1cnc(C)nc1N [Compound M44, (Z)—S-(2-(N-((4-amino-2-methylpyrimidin-5-yl)methyl)formamido)-5-hydroxypent-2-en-3-yl) 4-fluoronaphthalene-1-carbothioate] | – | 314 | 177 | – |
| C/C(=C(\CCO)SC(=O)c1cccc2cccc(F)c12)N(C=O)Cc1cnc(C)nc1N [Compound M45, (Z)—S-(2-(N-((4-amino-2-methylpyrimidin-5-yl)methyl)formamido)-5-hydroxypent-2-en-3-yl) 8-fluoronaphthalene-1-carbothioate] | – | 2.9 | 1.3 | – |
| C/C(=C(\CCO)SC(=O)c1cccc2cccc(C)c12)N(C=O)Cc1cnc(C)nc1N [Compound M46, (Z)—S-(2-(N-((4-amino-2-methylpyrimidin-5-yl)methyl)formamido)-5-hydroxypent-2-en-3-yl) 8-methylnaphthalene-1-carbothioate] | – | 6 | 1.3 | – |
| COc1ccc(C(=O)S/C(CCO)=C(/C)N(C=O)Cc2cnc(C)nc2N)c2ccccc12 [Compound M47, (Z)—S-(2-(N-((4-amino-2-methylpyrimidin-5-yl)methyl)formamido)-5-hydroxypent-2-en-3-yl) 4-methoxynaphthalene-1-carbothioate] | – | 85.1 | 25.3 | – |
| C/C(=C(\CCO)SC(=O)c1ccc2ccccc2c1)N(C=O)Cc1cnc(C)nc1N [Compound M49, (Z)—S-(2-(N-((4-amino-2-methylpyrimidin-5-yl)methyl)formamido)-5-hydroxypent-2-en-3-yl) naphthalene-2-carbothioate] | – | 202 | 414 | – |
